Results as given in the supplement of paper PMC10307832.

Key:
Assay in all cases: relative viability (nuclei count vs DMSO), 5 days (fraction); higher = more cells survive
[1] = test system: EMC-BAC-2
In short: (§1)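 A single step with final 0.05% Triton X-100, 1% formaldehyde and 1 ug/ml Hoechst fixed the cells and stained nuclei 5 days after treatment. Lung cancer cell lines in 1536-well plates had been treated by pin tool the day after seeding with one drug alone or a fixed anchor-drug dose plus five library-drug doses (not always all listed) in √10 steps, and nuclei were counted on 4× images. Relative viability is the ratio of nuclei in treated wells to nuclei in vehicle wells, taken as the median of duplicate plates.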

[2] = test system: NCI-H1437
In short: as §1

[3] = test system: NCI-H1395
In short: as §1

[4] = test system: CAL-12T
In short: as §1

[5] = test system: ABC-1
In short: as §1

[6] = test system: EKVX
In short: as §1

[7] = test system: LCLC-97TM1
In short: as §1

[8] = test system: SW 900
In short: as §1

[9] = test system: NCI-H522
In short: as §1

[10] = test system: LOU-NH91
In short: as §1

[11] = test system: NCI-H727
In short: as §1

[12] = test system: NCI-H596
In short: as §1

[13] = test system: HCC-78
In short: as §1

[14] = test system: NCI-H2170
In short: as §1

[15] = test system: LK-2
In short: as §1

[16] = test system: BEN
In short: as §1

[17] = test system: HCC-827
In short: as §1

[18] = test system: NCI-H1755
In short: as §1

[19] = test system: EPLC-272H
In short: as §1

[20] = test system: PC-14
In short: as §1

Nc1cccc2c1CN(C1CCC(=O)NC1=O)C2=O (configuration not stated) [Lenalidomide] + NC(=O)Nc1cc(-c2cccc(F)c2)sc1C(=O)N[C@H]1CCCNC1 [AZD7762] (partner 0.2 µM)
relative viability ([1]; first compound 0.253 µM): 1.12 | relative viability ([1]; first compound 0.8 µM): 0.64 | relative viability ([1]; first compound 2.53 µM): 1.19 | relative viability ([1]; first compound 8 µM): 0.931 | relative viability ([2]; first compound 0.253 µM): 1.16 | relative viability ([2]; first compound 0.8 µM): 1.23 | relative viability ([2]; first compound 2.53 µM): 1.17 | relative viability ([2]; first compound 8 µM): 1.19 | relative viability ([3]; first compound 0.253 µM): 0.405 | relative viability ([3]; first compound 2.53 µM): 0.387 | relative viability ([3]; first compound 8 µM): 0.376 | relative viability ([4]; first compound 0.253 µM): 0.668 | relative viability ([4]; first compound 0.8 µM): 0.564 | relative viability ([4]; first compound 2.53 µM): 0.737 | relative viability ([4]; first compound 8 µM): 0.666 | relative viability ([5]; first compound 0.253 µM): 0.791 | relative viability ([5]; first compound 0.8 µM): 0.59 | relative viability ([5]; first compound 2.53 µM): 0.929 | relative viability ([5]; first compound 8 µM): 0.856 | relative viability ([6]; first compound 0.253 µM): 0.735 | relative viability ([6]; first compound 0.8 µM): 0.941 | relative viability ([6]; first compound 2.53 µM): 0.805 | relative viability ([6]; first compound 8 µM): 0.7 | relative viability ([7]; first compound 0.253 µM): 0.304 | relative viability ([7]; first compound 0.8 µM): 0.114 | relative viability ([7]; first compound 2.53 µM): 0.364 | relative viability ([7]; first compound 8 µM): 0.222 | relative viability ([8]; first compound 2.53 µM): 0.578 | relative viability ([8]; first compound 8 µM): 0.456 | relative viability ([9]; first compound 0.253 µM): 0.858 | relative viability ([9]; first compound 0.8 µM): 0.882 | relative viability ([9]; first compound 2.53 µM): 0.758 | relative viability ([9]; first compound 8 µM): 0.758 | relative viability ([10]; first compound 0.253 µM): 0.781 | relative viability ([10]; first compound 0.8 µM): 0.702 | relative viability ([10]; first compound 2.53 µM): 0.766 | relative viability ([10]; first compound 8 µM): 0.647 | relative viability ([11]; first compound 0.253 µM): 0.655 | relative viability ([11]; first compound 0.8 µM): 0.574 | relative viability ([11]; first compound 2.53 µM): 0.555 | relative viability ([11]; first compound 8 µM): 0.709 | relative viability ([12]; first compound 0.253 µM): 1.13 | relative viability ([12]; first compound 0.8 µM): 1.09 | relative viability ([12]; first compound 2.53 µM): 1.1 | relative viability ([12]; first compound 8 µM): 1 | relative viability ([13]; first compound 0.253 µM): 0.767 | relative viability ([13]; first compound 0.8 µM): 0.537 | relative viability ([13]; first compound 2.53 µM): 0.617 | relative viability ([13]; first compound 8 µM): 0.417 | relative viability ([14]; first compound 0.253 µM): 0.861 | relative viability ([14]; first compound 0.8 µM): 0.703 | relative viability ([14]; first compound 2.53 µM): 0.976 | relative viability ([14]; first compound 8 µM): 0.739 | relative viability ([15]; first compound 0.253 µM): 0.511 | relative viability ([15]; first compound 0.8 µM): 0.366 | relative viability ([15]; first compound 2.53 µM): 0.33 | relative viability ([15]; first compound 8 µM): 0.206 | relative viability ([16]; first compound 0.253 µM): 0.783 | relative viability ([16]; first compound 0.8 µM): 0.503 | relative viability ([16]; first compound 2.53 µM): 0.701 | relative viability ([16]; first compound 8 µM): 0.563 | relative viability ([17]; first compound 0.253 µM): 0.264 | relative viability ([17]; first compound 0.8 µM): 0.325 | relative viability ([17]; first compound 2.53 µM): 0.255 | relative viability ([17]; first compound 8 µM): 0.206 | relative viability ([18]; first compound 0.253 µM): 0.458 | relative viability ([18]; first compound 0.8 µM): 0.498 | relative viability ([18]; first compound 2.53 µM): 0.452 | relative viability ([18]; first compound 8 µM): 0.454 | relative viability ([19]; first compound 0.253 µM): 0.23 | relative viability ([19]; first compound 0.8 µM): 0.202 | relative viability ([19]; first compound 2.53 µM): 0.213 | relative viability ([19]; first compound 8 µM): 0.201 | relative viability ([20]; first compound 0.253 µM): 0.384 | relative viability ([20]; first compound 0.8 µM): 0.297 | relative viability ([20]; first compound 2.53 µM): 0.386 | relative viability ([20]; first compound 8 µM): 0.427
